Assay results: EPA's ToxRefDB 2

Legend:
rat [1] = conditions: Subchronic oral toxicity in rodents, fischer, Feed, dose end: 14 week, group: systemic
mouse [2] = conditions: Subchronic oral toxicity in rodents, b6c3f1, Feed, dose end: 14 week, group: systemic
mouse [3] = conditions: Prenatal developmental toxicity study, cd1, Oral, Water, dose end: 15 GD
dog = conditions: Sub-acute repeat dose toxicity; beagle; Injection; Intravenous; dose end: 4 week; group: systemic; systemic / clinical chemistry / alanine aminotransferase (alt/sgpt) / alanine aminotransferase (alt/sgpt) + systemic / clinical chemistry / …
rat [4] = conditions: Subchronic oral toxicity in rodents, fischer, Gavage/Intubation, dose end: 14 week, group: systemic
mouse [5] = conditions: Prenatal developmental toxicity study, other, Injection, Intraperitoneal, dose end: 13 GD
rat [6] = conditions: Prenatal developmental toxicity study, sprague dawley, Oral, Feed, dose end: 15 GD
mouse [7] = conditions: Carcinogenicity, b6c3f1, Oral, Gavage/Intubation, dose end: 2 year, group: systemic
mouse [8] = conditions: Subchronic oral toxicity in rodents, b6c3f1, Gavage/Intubation, dose end: 14 week, group: systemic
rabbit = conditions: Prenatal developmental toxicity study, other, Injection, Intravenous, dose end: 18 GD
rat [9] = conditions: Combined chronic toxicity/carcinogenicity; fischer; Oral; Gavage/Intubation; dose end: 2 year; group: systemic; systemic / in life observation / body weight / body weight gain
[10] = systemic / hematology / mean corpuscular (cell) volume (mcv) / mean corpuscular (cell) volume (mcv) + systemic / hematology / mean …
[11] = systemic / hematology / neutrophils / neutrophils
[12] = systemic / in life observation / body weight / body weight + systemic / in life observation / body weight / body weight gain
[13] = systemic / in life observation / body weight / body weight + systemic / in life observation / body weight / body weight gain + systemic / …
[14] = group: developmental, systemic / in life observation / body weight / fetal weight
[15] = group: maternal, reproductive / reproductive performance / resorptions / resorptions + systemic / in life observation / body weight / body weight gain + …
[16] = systemic / hematology / mean corpuscular hemoglobin (mch) / mean corpuscular hemoglobin (mch)
[17] = group: developmental, developmental / developmental malformation / general / [other] + developmental / developmental malformation / limb / micromelia + …
[18] = group: developmental, developmental / developmental malformation / paw / digit / ectrodactyly
[19] = group: maternal, reproductive / reproductive performance / resorptions / resorptions + reproductive / offspring survival early / dead fetuses / dead fetuses
[20] = group: maternal, reproductive / offspring survival early / litter size / litter size + systemic / in life observation / body weight / body weight gain + …
[21] = group: maternal, systemic / in life observation / water consumption / water consumption
[22] = systemic / in life observation / body weight / body weight
[23] = systemic / in life observation / body weight / body weight + systemic / in life observation / clinical signs / hyperactivity
[24] = systemic / in life observation / mortality / mortality + systemic / pathology microscopic / liver / glycogen deposition + systemic / …
[25] = systemic / pathology microscopic / liver / glycogen deposition
[26] = group: developmental, developmental / developmental malformation / bone / [other] + developmental / developmental malformation / bone / supernumerary + …
[27] = group: maternal, reproductive / reproductive performance / aborted / aborted + systemic / in life observation / body weight / body weight + systemic / in …

Cn1c(=O)c2[nH]cnc2n(C)c1=O [Theophylline]
LOAEL (rat [1]; [10]): 125 mg/kg/day
NOAEL (rat [1]; [10]): 75 mg/kg/day
LEL (rat [1]; [11]): 75 mg/kg/day
NEL (rat [1]; [11]): < 75 mg/kg/day
LOAEL (mouse [2]; [12]): 175 mg/kg/day
NOAEL (mouse [2]; [12]): < 175 mg/kg/day
LEL (mouse [2]; [13]): 175 mg/kg/day
NEL (mouse [2]; [13]): < 175 mg/kg/day
LEL (mouse [3]; [14]): 372 mg/kg/day
LOAEL (mouse [3]; [14]): > 396 mg/kg/day
NEL (mouse [3]; [14]): 282 mg/kg/day
NOAEL (mouse [3]; [14]): ≥ 396 mg/kg/day
LEL (mouse [3]; [15]): 372 mg/kg/day
LOAEL (mouse [3]; [15]): > 396 mg/kg/day
NEL (mouse [3]; [15]): 282 mg/kg/day
NOAEL (mouse [3]; [15]): ≥ 396 mg/kg/day
LEL (dog): 35 mg/kg/day
LOAEL (dog): > 70 mg/kg/day
NEL (dog): 20 mg/kg/day
NOAEL (dog): ≥ 70 mg/kg/day
LEL (rat [4]; [16]): 37.5 mg/kg/day
NEL (rat [4]; [16]): < 37.5 mg/kg/day
LOAEL (rat [4]; systemic / pathology microscopic / artery (general) / polyarteritis + systemic / hematology / mean corpuscular (cell) volume (mcv) / mean …): 150 mg/kg/day
NOAEL (rat [4]; systemic / pathology microscopic / artery (general) / polyarteritis + systemic / in life observation / body weight / body weight gain + …): 75 mg/kg/day
LOAEL (mouse [5]; [17]): > 200 mg/kg/day
NOAEL (mouse [5]; [17]): ≥ 200 mg/kg/day
LEL (mouse [5]; [18]): 100 mg/kg/day
NEL (mouse [5]; [18]): < 100 mg/kg/day
NEL (mouse [5]; group: maternal, reproductive / reproductive performance / resorptions / resorptions): 150 mg/kg/day
LEL (mouse [5]; [19]): 200 mg/kg/day
LOAEL (mouse [5]; [19]): > 200 mg/kg/day
NOAEL (mouse [5]; [19]): ≥ 200 mg/kg/day
LEL (rat [6]; [14]): 218 mg/kg/day
LOAEL (rat [6]; [14]): > 259 mg/kg/day
NEL (rat [6]; [14]): 124 mg/kg/day
NOAEL (rat [6]; [14]): ≥ 259 mg/kg/day
LOAEL (rat [6]; [20]): > 259 mg/kg/day
NOAEL (rat [6]; [20]): ≥ 259 mg/kg/day
LEL (rat [6]; [21]): 124 mg/kg/day
NEL (rat [6]; [21]): < 124 mg/kg/day
LEL (mouse [7]; [22]): 25 mg/kg/day
LOAEL (mouse [7]; [22]): 25 mg/kg/day
NEL (mouse [7]; [23]): 7.5 mg/kg/day
NOAEL (mouse [7]; [23]): 7.5 mg/kg/day
LOAEL (mouse [8]; [24]): > 300 mg/kg/day
NOAEL (mouse [8]; [24]): ≥ 300 mg/kg/day
LEL (mouse [8]; [25]): 75 mg/kg/day
NEL (mouse [8]; [25]): < 75 mg/kg/day
LEL (rabbit; group: developmental, developmental / developmental malformation / bone / [other]): 30 mg/kg/day
LOAEL (rabbit; [26]): > 60 mg/kg/day
NEL (rabbit; [26]): 15 mg/kg/day
NOAEL (rabbit; [26]): ≥ 60 mg/kg/day
LOAEL (rabbit; [27]): > 60 mg/kg/day
NEL (rabbit; [27]): 15 mg/kg/day
NOAEL (rabbit; [27]): ≥ 60 mg/kg/day
LEL (rabbit; group: maternal, systemic / urinalysis / volume / volume): 30 mg/kg/day
LEL (rat [9]): 7.5 mg/kg/day
LOAEL (rat [9]): 7.5 mg/kg/day
NEL (rat [9]): < 7.5 mg/kg/day
NOAEL (rat [9]): < 7.5 mg/kg/day
